Measurements taken from the CheMixHub ionic liquid set.

Test: xn = mol fraction of the nth substance listed

CC(O)C(=O)[O-].CCOCCn1cc[n+](C)c1 + O
100 kPa
Details	electrical conductivity [S/m]	viscosity [mPa·s]
293.15 K, x1 = 0.8093	0.292	70.03
293.15 K, x1 = 0.8365	0.261	74.7
293.15 K, x1 = 0.9017	0.2	85.7
298.15 K, x1 = 0.8702	0.276	60.47
303.15 K, x1 = 0.938	0.274	52.44
308.15 K, x1 = 0.8093	0.498	31.76
308.15 K, x1 = 0.8365	0.464	33.56
308.15 K, x1 = 0.8702	0.43	35.75
318.15 K, x1 = 0.9017	0.617	22.56

CCCCCCCCCC[n+]1ccn(C)c1.[Br-] + O
electrical conductivity [S/m], 101 kPa
Details	296 K	301 K	306 K	311 K	316 K
x1 = 0.0001622	–	–	–	–	0.0606
x1 = 0.0002342	–	–	–	–	0.0892
x1 = 0.0002522	0.0652	–	–	0.0827	–
x1 = 0.0003423	0.0864	–	0.1	0.107	0.117
x1 = 0.0003603	–	0.0919	–	–	–
x1 = 0.0004503	0.102	0.11	0.118	0.131	0.14
x1 = 0.0005763	0.125	0.134	0.141	0.155	0.168
x1 = 0.0007023	0.141	0.152	0.162	0.175	0.191
x1 = 0.0008462	–	0.172	–	–	0.223
x1 = 0.0008642	0.163	–	0.188	0.202	–
x1 = 0.001026	0.176	0.186	0.205	0.221	0.248
x1 = 0.001206	0.195	0.204	0.223	0.243	0.272
x1 = 0.001422	0.205	0.22	0.237	0.254	0.291
x1 = 0.001673	0.216	0.23	0.257	0.271	0.309
x1 = 0.00196	0.234	0.24	0.263	0.28	0.323
x1 = 0.002301	–	–	0.274	0.293	0.34
x1 = 0.002319	–	0.251	–	–	–

298.15 K, 100 kPa, frequency 5e-05 MHz
Details	electrical conductivity [S/m]
x1 = 0.0003459	0.175
x1 = 0.0003945	0.199
x1 = 0.0004629	0.235
x1 = 0.0004917	0.249
x1 = 0.0005259	0.265
x1 = 0.0005781	0.289
x1 = 0.0006231	0.31
x1 = 0.0006537	0.325
x1 = 0.0006861	0.34
x1 = 0.0007311	0.36
x1 = 0.0007563	0.37
x1 = 0.0007922	0.374
x1 = 0.0009038	0.387
x1 = 0.000938	0.391
x1 = 0.0009775	0.395
x1 = 0.001044	0.403
x1 = 0.001082	0.407
x1 = 0.001118	0.41
x1 = 0.001152	0.414
x1 = 0.001206	0.422

CCCCCC[N+](CC)(CC)CC.O=S(=O)([N-]S(=O)(=O)C(F)(F)F)C(F)(F)F + O
101 kPa, x2 = 0.1627
Details	viscosity [mPa·s]
293.25 K	79.3
308.05 K	44.04

CCCCCC[n+]1ccn(C)c1.F[P-](F)(F)(F)(F)F + O
101 kPa, x2 = 0.22
Details	electrical conductivity [S/m]	viscosity [mPa·s]
293.15 K	–	269
295.15 K	0.1	–

CCCC[n+]1ccn(C)c1.F[P-](F)(F)(F)(F)F + O
Details	electrical conductivity [S/m]	viscosity [mPa·s]
293.15 K, 100 kPa, x1 = 0.0001838	–	1.011
293.15 K, 100 kPa, x1 = 0.0005385	–	1.025
293.15 K, 100 kPa, x1 = 0.0008966	–	1.038
293.15 K, 100 kPa, x1 = 0.001262	–	1.041
298.15 K, 100 kPa, x1 = 0.0001838	–	0.905
298.15 K, 100 kPa, x1 = 0.0005385	–	0.916
298.15 K, 100 kPa, x1 = 0.0008966	–	0.922
298.15 K, 100 kPa, x1 = 0.001262	–	0.932
298.15 K, 101 kPa, x1 = 0.00129	–	0.929
298.15 K, 101 kPa, x2 = 0	0.157	260
298.15 K, 101 kPa, x2 = 0.0518	0.197	200
298.15 K, 101 kPa, x2 = 0.0985	0.235	154
298.15 K, 101 kPa, x2 = 0.1409	0.281	127
298.15 K, 101 kPa, x2 = 0.1794	0.334	109
298.15 K, 101 kPa, x2 = 0.2146	0.383	92
303.15 K, 100 kPa, x1 = 0.0001838	–	0.821
303.15 K, 100 kPa, x1 = 0.0005385	–	0.826
303.15 K, 100 kPa, x1 = 0.001262	–	0.843
308.15 K, 100 kPa, x1 = 0.0001838	–	0.742
308.15 K, 100 kPa, x1 = 0.0005385	–	0.744
308.15 K, 100 kPa, x1 = 0.0008966	–	0.75
308.15 K, 100 kPa, x1 = 0.001262	–	0.761
313.15 K, 100 kPa, x1 = 0.0001838	–	0.661
313.15 K, 100 kPa, x1 = 0.0005385	–	0.674
313.15 K, 100 kPa, x1 = 0.0008966	–	0.677
313.15 K, 100 kPa, x1 = 0.001262	–	0.683

101 kPa, frequency 6e-05 MHz
Details	electrical conductivity [S/m]
293.2 K, x2 = 0.1	0.199
298.2 K, x2 = 0.05	0.231
298.2 K, x2 = 0.15	0.361
308.2 K, x2 = 0.1	0.401
308.2 K, x2 = 0.2	0.546
313.2 K, x2 = 0.15	0.561
318.2 K, x2 = 0.05	0.491
318.2 K, x2 = 0.2	0.775
323.2 K, x2 = 0.1	0.678
333.2 K, x2 = 0.2	1.06
343.2 K, x2 = 0.15	1.06
353.2 K, x2 = 0.15	1.405
353.2 K, x2 = 0.2	1.621

CC[n+]1ccn(C)c1.O=S(=O)([O-])O + O
viscosity [mPa·s]
Details	293.15 K	298.15 K	303.15 K	308.15 K	313.15 K	318.15 K
100 kPa, x1 = 0.0005421	1.046	0.929	0.824	0.75	0.678	–
100 kPa, x1 = 0.0009002	1.05	0.94	0.84	0.76	0.69	0.65
100 kPa, x1 = 0.0009056	1.068	0.949	0.843	0.759	0.684	–
100 kPa, x1 = 0.001263	1.073	0.966	0.866	0.78	0.697	–
100 kPa, x1 = 0.001799	1.07	0.95	0.85	0.77	0.7	0.64
100 kPa, x1 = 0.002696	1.08	0.96	0.86	0.78	0.71	0.64
101 kPa, x1 = 0.0006645	1.023	0.93	0.8234	0.7498	0.6736	–
101 kPa, x1 = 0.0007293	1.036	0.943	0.8247	0.7493	0.6893	–
101 kPa, x1 = 0.0009254	1.064	0.943	0.8439	0.7628	0.6829	–

COCCCn1cc[n+](C)c1.O=S(=O)([N-]S(=O)(=O)C(F)(F)F)C(F)(F)F + O
Details	viscosity [mPa·s]
283 K, 101 kPa, x1 = 0.8316	82.6

Cn1cc[nH+]c1.[Cl-] + O
viscosity [mPa·s], 100 kPa
Details	x1 = 9.081e-05	x1 = 0.000182	x1 = 0.0003637	x1 = 0.0005491	x1 = 0.0007277	x1 = 0.0008883	x1 = 0.001091	x1 = 0.001364	x1 = 0.00178
278.15 K	1.521	1.523	1.525	1.528	1.53	1.532	1.535	1.539	1.543
283.15 K	1.308	1.309	1.311	1.313	1.314	1.316	1.319	1.32	1.323
288.15 K	1.139	1.141	1.142	1.144	1.145	1.146	1.149	1.151	1.153
293.15 K	1.003	1.004	1.005	1.007	1.009	1.01	1.013	1.014	1.018
298.15 K	0.89	0.891	0.892	0.894	0.896	0.897	0.899	0.901	0.904
303.15 K	0.798	0.799	0.8	0.801	0.803	0.804	0.805	0.806	0.808
308.15 K	0.719	0.72	0.721	0.722	0.723	0.724	0.725	0.727	0.728
313.15 K	0.652	0.653	0.654	0.655	0.656	0.657	0.658	0.659	0.662
